Experimental data from US10626095B2, “Cyanotriazole compounds” (OTSUKA PHARMACEUTICAL CO., LTD., priority 2013, dated 2020).

Test system: Zucker Diabetic Fatty (ZDF) rat
Assay: Meal load test in type 2 diabetic model rats (postprandial blood glucose)
Format: in vivo
Parameters: unit not given here
Details: ZDF rats fasted overnight, oral 30 mg/kg in 5% Arabia gum, blood glucose one hour after meal loading (50 kcal/kg)
Procedure: Effects on Type 2 Diabetes: Meal Load Test
To evaluate whether a cyanotriazol compound improves diabetes or not, especially related to postprandial blood glucose, meal load test was performed using one of type 2 diabetic model rats, the Zucker Diabetic Fatty (ZDF) rat (Charles river, Japan). About 24 animals fasted overnight (17 h) were taken blood samples from the tail veins, and measured blood glucose levels (Pre BG) and body weights (BW). Proper animals were selected and divided into […] (n=6) based on the Pre BG and BW using SAS Statistical Analysis System (SAS institute Japan Ltd. Release 9.1). The compounds to be tested (10 or 30 mg/kg body weight in 5% Arabia gum) or Arabia gum solution only (vehicle group) were orally administrated via gavage two hours prior to or just before meal loading (50 kcal/kg body weight). The meal suspension was prepared by mixing purified AIN-93G (Norsan Corp, Yokohama, Japan) and distilled water (2:3, w/v). One-hour after meal loading, blood glucose (BG1h) of each animal was measured. Effectiveness of each compound was shown by ? BG1h (BG1h difference between compound group and vehicle group). Although a set of 24 animals was used several times (from 13 weeks to 21 weeks of age), at least a one-week interval was placed from one to another test.

| SMILES | BG1h (BG1h difference between compound group and vehicle group) |
| --- | --- |
| CC(OC(=O)OCC(C)(C)C(=O)O)n1nc(C#N)c(-c2cc(Cl)cc(-c3ccc4c(c3)OC(F)(F)O4)c2)n1 (centres unmarked) [Example 1808, 3-(1-{4-[3-chloro-5-(2,2-difluoro-benzo[1,3]dioxol-5-yl)-phenyl]-5-cyano-2H-[1,2,3]triazol-2-yl}-ethoxycarbonyloxy)-2,2-dimethyl-propionic acid] | −76.0 |
| CC(OC(=O)OCC(C)(C)C(=O)O)n1nc(C#N)c(-c2cc(Cl)cc(-c3nccc(C(F)(F)F)n3)c2)n1 (centres unmarked) [Example 1810, 3-(1-{4-[3-chloro-5-(4-trifluoromethyl-pyrimidin-2-yl)-phenyl]-5-cyano-2H-[1,2,3]triazol-2-yl}-ethoxycarbonyloxy)-2,2-dimethyl-propionic acid] | −53.2 |
| CC(OC(=O)OCC(C)(C)C(=O)O)n1nc(C#N)c(-c2cc(Cl)cc(/C=C/c3cccc(C(F)(F)F)c3)c2)n1 (centres unmarked) [Example 1811, 3-[1-(4-{3-chloro-5-[(E)-2-(3-trifluoromethyl-phenyl)-vinyl]-phenyl}-5-cyano-2H-[1,2,3]triazol-2-yl)-ethoxycarbonyloxy]-2,2-dimethyl-propionic acid] | −84.5 |
| COc1cc(-c2cc(C(F)(F)F)ccn2)cc(-c2nn(C(C)OC(=O)OCC(C)(C)C(=O)O)nc2C#N)c1 (centres unmarked) [Example 1812, 3-(1-{4-cyano-5-[3-methoxy-5-(4-trifluoromethyl-pyridin-2-yl)-phenyl]-2H-[1,2,3]triazol-2-yl}-ethoxycarbonyloxy)-2,2-dimethyl-propionic acid] | −111.8 |
| CC(OC(=O)OCC(C)(C)C(=O)O)n1nc(C#N)c(-c2cc(/C=C/c3cccc(C(F)(F)F)n3)cc(C(F)(F)F)c2)n1 (centres unmarked) [Example 1813, 3-[1-(4-cyano-5-{3-trifluoromethyl-5-[(E)-2-(6-trifluoromethyl-pyridin-2-yl)-vinyl]-phenyl}-2H-[1,2,3]triazol-2-yl)-ethoxycarbonyloxy]-2,2-dimethyl-propionic acid] | −73.0 |
| CC(OC(=O)OCC(C)(C)C(=O)O)n1nc(C#N)c(-c2csc(-c3ccc(Cl)cc3)n2)n1 (centres unmarked) [Example 1814] | −108.7 |
| CC(OC(=O)OCC(C)(C)C(=O)O)n1nc(C#N)c(-c2cccc(/C=C/c3cc(C(F)(F)F)ccn3)c2)n1 (centres unmarked) [Example 1815, 3-[1-(4-cyano-5-{3-[(E)-2-(4-trifluoromethyl-pyridin-2-yl)-vinyl]-phenyl}-2H-[1,2,3]triazol-2-yl)-ethoxycarbonyloxy]-2,2-dimethyl-propionic acid] | −63.2 |
| CC(OC(=O)OCC(C)(C)C(=O)O)n1nc(C#N)c(-c2cccc(/C=C/c3nccc(C(F)(F)F)n3)c2)n1 (centres unmarked) [Example 1816, 3-[1-(4-cyano-5-{3-[(E)-2-(4-trifluoromethyl-pyrimidin-2-yl)-vinyl]-phenyl}-2H-[1,2,3]triazol-2-yl)-ethoxycarbonyloxy]-2,2-dimethyl-propionic acid] | −45.5 |
| CC(OC(=O)OCC(C)(C)C(=O)O)n1nc(C#N)c(-c2nc(-c3cccc(C(F)(F)F)c3)sc2Cl)n1 (centres unmarked) [Example 1817, 3-(1-{4-[5-chloro-2-(3-trifluoromethyl-phenyl)-thiazol-4-yl]-5-cyano-2H-[1,2,3]triazol-2-yl}-ethoxycarbonyloxy)-2,2-dimethyl-propionic acid] | −106.5 |
| CC(OC(=O)OCC(C)(C)C(=O)O)n1nc(C#N)c(-c2csc(-c3cccc(OC(F)(F)F)c3)n2)n1 (centres unmarked) [Example 1818, 3-(1-{4-cyano-5-[2-(3-trifluoromethoxy-phenyl)-thiazol-4-yl]-2H-[1,2,3]triazol-2-yl}-ethoxycarbonyloxy)-2,2-dimethyl-propionic acid] | −33.0 |
| CC(OC(=O)OCC(C)(C)C(=O)O)n1nc(C#N)c(-c2csc(-c3ccc(Cl)c(Cl)c3)n2)n1 (centres unmarked) [Example 1819, 3-(1-{4-cyano-5-[2-(3,4-dichloro-phenyl)-thiazol-4-yl]-2H-[1,2,3]triazol-2-yl}-ethoxycarbonyloxy)-2,2-dimethyl-propionic acid] | −54.3 |
| Cc1sc(-c2ccc(C(F)(F)F)cc2)nc1-c1nn(C(C)OC(=O)OCC(C)(C)C(=O)O)nc1C#N (centres unmarked) [Example 1820, 3-(1-{4-cyano-5-[5-methyl-2-(4-trifluoromethyl-phenyl)-thiazol-4-yl]-2H-[1,2,3]triazol-2-yl}-ethoxycarbonyloxy)-2,2-dimethyl-propionic acid] | −77.0 |
| CC(C)c1oc(-c2ccc(Cl)cc2)nc1-c1nn(C(C)OC(=O)OCC(C)(C)C(=O)O)nc1C#N (centres unmarked) [Example 1822, 3-(1-{4-[2-(4-chloro-phenyl)-5-isopropyl-oxazol-4-yl]-5-cyano-2H-[1,2,3]triazol-2-yl}-ethoxycarbonyloxy)-2,2-dimethyl-propionic acid] | −36.0 |
| Cc1sc(-c2ccc(F)c(Cl)c2)nc1-c1nn(C(C)OC(=O)OCC(C)(C)C(=O)O)nc1C#N (centres unmarked) [Example 1823, 3-(1-{4-[2-(3-chloro-4-fluoro-phenyl)-5-methyl-thiazol-4-yl]-5-cyano-2H-[1,2,3]triazol-2-yl}-ethoxycarbonyloxy)-2,2-dimethyl-propionic acid] | −63.3 |
| Cc1cc(-c2ccc(C(F)(F)F)nc2)cc(-c2nn(C(C)OC(=O)OCC(C)(C)C(=O)O)nc2C#N)c1 (centres unmarked) [Example 1825, 3-(1-{4-cyano-5-[3-methyl-5-(6-trifluoromethyl-pyridin-3-yl)-phenyl]-2H-[1,2,3]triazol-2-yl}-ethoxycarbonyloxy)-2,2-dimethyl-propionic acid] | −48.3 |
| CC(OC(=O)OC(C)(C)CC(=O)O)n1nc(C#N)c(-c2cccc(OCc3cc(C(F)(F)F)ccc3C(F)(F)F)c2)n1 (centres unmarked) [Example 1827, 3-(1-{4-[3-(2,5-bis-trifluoromethylbenzyloxy)phenyl]-5-cyano-2H-[1,2,3]triazol-2-yl}ethoxycarbonyloxy)-3-methylbutyric acid] | −82.5 |
| CC(OC(=O)OCCO)n1nc(C#N)c(-c2cccc(OCc3cc(C(F)(F)F)ccc3C(F)(F)F)c2)n1 (centres unmarked) [Example 1828, carbonic acid 1-{4-[3-(2,5-bis-trifluoromethylbenzyloxy)phenyl]-5-cyano-2H-[1,2,3]triazol-2-yl}ethyl ester-2-hydroxyethyl ester] | −69.3 |
| CC(=O)OCn1nc(C#N)c(-c2cc(C)cc(-c3nccc(C(F)(F)F)n3)c2)n1 [Example 1829, acetic acid 4-cyano-5-[3-methyl-5-(4-trifluoromethylpyrimidin-2-yl)phenyl]-2H-[1,2,3]triazol-2-ylmethyl ester] | −93.7 |
| CC(=O)OCn1nc(C#N)c(-c2cc(Cl)cc(/C=C/c3cccc(C(F)(F)F)c3)c2)n1 [Example 1830, acetic acid 4-{3-chloro-5-[(E)-2-(3-trifluoromethylphenyl)vinyl]phenyl}-5-cyano-2H-[1,2,3]triazol-2-ylmethyl ester] | −52.5 |
| CCCC(=O)OCn1nc(C#N)c(-c2cc(Cl)cc(/C=C/c3cccc(C(F)(F)F)c3)c2)n1 [Example 1831] | −61.0 |
